Data published in the NIST ThermoML archive (doi:10.1021/je800334m).

Columns and labels:
[1] = excess molar enthalpy (molar enthalpy of mixing); xn = mol fraction of the nth substance listed; details: Liquid, Flow calorimetry
[2] = Liquid

CN(C)CCO [2-(N,N-dimethylamino)ethanol] + CCCO
excess molar enthalpy [kcal/mol], [1]
Details | 298.2 K | 313.2 K | 328.2 K
100 kPa, x1 = 0.2007 | -0.0457 | – | -0.0632
100 kPa, x1 = 0.2509 | -0.0511 | – | -0.0696
100 kPa, x1 = 0.2984 | – | -0.06 | –
100 kPa, x1 = 0.3008 | -0.0552 | – | -0.0748
100 kPa, x1 = 0.3505 | -0.0583 | -0.0638 | -0.0781
100 kPa, x1 = 0.3999 | -0.0599 | – | -0.0796
100 kPa, x1 = 0.4012 | – | -0.066 | –
100 kPa, x1 = 0.4501 | – | -0.0668 | –
100 kPa, x1 = 0.4507 | -0.0602 | – | -0.0797
100 kPa, x1 = 0.499 | -0.0606 | – | -0.0781
100 kPa, x1 = 0.5004 | – | -0.0662 | –
100 kPa, x1 = 0.5488 | – | -0.0642 | –
100 kPa, x1 = 0.5509 | -0.0586 | – | -0.0749
100 kPa, x1 = 0.5985 | – | -0.0613 | –
100 kPa, x1 = 0.6 | -0.056 | – | -0.0707
100 kPa, x1 = 0.6497 | – | -0.0571 | –
100 kPa, x1 = 0.6505 | -0.0524 | – | -0.065
100 kPa, x1 = 0.6986 | – | -0.0518 | –
100 kPa, x1 = 0.7001 | – | – | -0.0585
100 kPa, x1 = 0.7488 | – | -0.0455 | –
100 kPa, x1 = 0.8005 | – | -0.0377 | –
100 kPa, x1 = 0.8495 | – | -0.0297 | –
10000 kPa, x1 = 0.2001 | -0.0457 | – | -0.063
10000 kPa, x1 = 0.2492 | – | -0.0553 | –
10000 kPa, x1 = 0.2503 | -0.0511 | – | -0.0701
10000 kPa, x1 = 0.2998 | – | -0.0611 | –
10000 kPa, x1 = 0.3004 | -0.0553 | – | -0.0757
10000 kPa, x1 = 0.3489 | – | -0.0646 | –
10000 kPa, x1 = 0.3502 | -0.0582 | – | -0.079
10000 kPa, x1 = 0.3995 | -0.0602 | -0.0667 | -0.0808
10000 kPa, x1 = 0.4484 | – | -0.0674 | –
10000 kPa, x1 = 0.4504 | -0.0609 | – | -0.0811
10000 kPa, x1 = 0.4986 | – | -0.067 | –
10000 kPa, x1 = 0.5007 | -0.0605 | – | -0.0793
10000 kPa, x1 = 0.5504 | -0.0587 | -0.065 | -0.0764
10000 kPa, x1 = 0.5994 | -0.056 | – | -0.0722
10000 kPa, x1 = 0.6001 | – | -0.0618 | –
10000 kPa, x1 = 0.6497 | -0.0527 | – | -0.0667
10000 kPa, x1 = 0.6512 | – | -0.0573 | –
10000 kPa, x1 = 0.7 | – | -0.0518 | –
10000 kPa, x1 = 0.7501 | – | -0.0453 | –
10000 kPa, x1 = 0.8015 | – | -0.0375 | –
10000 kPa, x1 = 0.8503 | – | -0.0293 | –

CCO [ethanol]
molar volume [m3/mol], [2]
Details | 298.15 K | 313.15 K | 328.15 K
100 kPa | 5.867e-05 | 5.964e-05 | 6.067e-05
10000 kPa | 5.803e-05 | 5.899e-05 | 6.001e-05

CO [methanol]
molar volume [m3/mol], [2]
Details | 298.15 K | 313.15 K | 328.15 K
100 kPa | 4.073e-05 | 4.146e-05 | 4.221e-05
10000 kPa | 4.024e-05 | 4.096e-05 | 4.17e-05

CCCO [propan-1-ol]
molar volume [m3/mol], [2]
Details | 298.15 K | 313.15 K | 328.15 K
100 kPa | 7.514e-05 | 7.632e-05 | 7.759e-05
10000 kPa | 7.452e-05 | 7.569e-05 | 7.694e-05

CC(C)O [propan-2-ol]
molar volume [m3/mol], [2]
Details | 298.15 K | 313.15 K | 328.15 K
100 kPa | 7.694e-05 | 7.822e-05 | 7.962e-05
10000 kPa | 7.594e-05 | 7.72e-05 | 7.857e-05
